Laboratory results as given in ChEMBL document CHEMBL1133393, “Synthesis of 8-chloro-benzo[c]quinolizin-3-ones as potent and selective inhibitors of human steroid 5alpha-reductase 1” (Bioorg Med Chem Lett, 2000).

molecular target: T1, 3-oxo-5-alpha-steroid 4-dehydrogenase 1 (Homo sapiens, UniProt P18405); experiment: Inhibition of human Steroid 5-alpha-reductase type I
T1 sequence (P18405 whole entry): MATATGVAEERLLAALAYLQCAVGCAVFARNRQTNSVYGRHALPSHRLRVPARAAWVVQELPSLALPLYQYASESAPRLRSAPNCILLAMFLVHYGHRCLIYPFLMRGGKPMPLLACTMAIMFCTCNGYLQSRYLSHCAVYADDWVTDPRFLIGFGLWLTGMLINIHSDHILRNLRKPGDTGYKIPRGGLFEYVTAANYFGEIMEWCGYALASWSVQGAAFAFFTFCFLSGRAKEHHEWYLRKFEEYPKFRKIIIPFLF

Row | IC50 [nM] | SMILES
1 | 459 | O=C1C=CN2c3ccc(Cl)cc3CC[C@H]2C1
2 | 188 | C[C@@H]1C[C@H]2CC(=O)C=CN2c2ccc(Cl)cc21

Further lines, the molecule ahead of its results:

Row | SMILES | IC50 [nM]
3 | C[C@H]1Cc2cc(Cl)ccc2N2C=CC(=O)C[C@H]12 | 9100
4 | C[C@@H]1CC2=CC(=O)CCN2c2ccc(Cl)cc21 | 14.4
5 | C[C@H]1Cc2cc(Cl)ccc2N2CCC(=O)C=C12 | 346
6 | CC(C)CCCC(C)[C@H]1CCC2C3C(CC[C@@]21C)[C@@]1(C)CCC(=O)N(C)C1C[C@@H]3C (some centres not stated) | 0.5
7 | O=C1C=C2CCc3cc(Cl)ccc3N2CC1 | 49
